Patent US9688722B2, “Substrates and inhibitors of prolyl oligopeptidase and methods of use” (The Board of Regents of the University of Oklahoma, priority 2012, dated 2017)
Entries after “also recorded” stand apart in the source; their conditions may differ. Where two headings read alike, the source gives them in different places. One block for each molecule: values may come before it. Non-standard residues stand in square brackets, D forms with d. Residues, ends and D or L forms follow the SMILES beside them. *: point of attachment. AFC = O=c1cc(C(F)(F)F)c2ccc(N*)cc2o1; Tic = O=C(O)[C@@H]1Cc2ccccc2CN1; AMC = Cc1cc(=O)oc2cc(N*)ccc12; Cbz = O=C(OCc1ccccc1)*; AEEA = NCCOCCOCC(=O)O

Assays:
DPPIV [1] = target: T1, DPPIV (Homo sapiens, UniProt P27487); settings: result in words; cited from earlier work
T1 sequence (P27487 whole entry, species assumed): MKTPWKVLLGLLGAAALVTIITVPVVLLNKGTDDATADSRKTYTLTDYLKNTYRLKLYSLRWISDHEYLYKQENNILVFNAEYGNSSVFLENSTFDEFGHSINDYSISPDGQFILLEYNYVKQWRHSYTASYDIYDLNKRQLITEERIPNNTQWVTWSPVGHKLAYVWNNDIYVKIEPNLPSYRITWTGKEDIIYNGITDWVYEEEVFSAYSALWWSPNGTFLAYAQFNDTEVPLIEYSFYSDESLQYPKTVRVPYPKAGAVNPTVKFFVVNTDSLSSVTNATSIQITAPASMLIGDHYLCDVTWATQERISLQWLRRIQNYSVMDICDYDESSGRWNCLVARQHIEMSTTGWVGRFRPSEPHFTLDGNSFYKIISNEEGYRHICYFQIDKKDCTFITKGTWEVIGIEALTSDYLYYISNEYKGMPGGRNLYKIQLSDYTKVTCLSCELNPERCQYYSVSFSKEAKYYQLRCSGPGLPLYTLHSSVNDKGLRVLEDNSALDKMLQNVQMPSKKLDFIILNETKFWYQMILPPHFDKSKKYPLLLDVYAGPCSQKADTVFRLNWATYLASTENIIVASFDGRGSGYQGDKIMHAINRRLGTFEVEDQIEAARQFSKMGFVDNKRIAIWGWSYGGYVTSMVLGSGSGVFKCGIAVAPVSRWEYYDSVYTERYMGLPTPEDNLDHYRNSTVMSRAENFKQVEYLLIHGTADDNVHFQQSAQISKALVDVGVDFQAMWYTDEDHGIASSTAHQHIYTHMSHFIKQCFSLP

[2] = before cyclizing and losing inhibitory activity; cited from earlier work
Aqueous solubility = assay type: physicochemical; settings: result in words
Description: The specific POP inhibitor, J94 (acetyl-Lys-Leu-Arg-(L)boroPro (Ki<100 nM)); and the substrate, C95 (acetyl-Arg-AEEA-Gly-Pro-AMC), were designed, synthesized and characterized by us as previously reported. […] The inhibitors (J94 and M83) were dissolved in Hanks Balanced Salt Solution (HBSS; Gibco) at 1 mM and stored at −20° C. The substrate (C95) was dissolved in HBSS at 2.5 mM and stored at 4° C. […] Tic-Pro-AFC, a prolyl-specific fluorescent substrate, was supplied by Vantia (Southampton, England).

[3] = system: HCT116 human colon cancer xenografts; experiment: HCT116 human colon cancer xenografts in immunodeficient mice; assay type: in vivo; settings: 28-day treatment period
APCE/FAP [4] = target: T2, APCE/FAP (Homo sapiens, UniProt Q12884); experiment: APCE/FAP inhibition constants (Ki) with Tic-Pro-AFC substrate; assay type: biochemical; settings: for Ki: substrate Tic-Pro-AFC
T2 construct: absence of an about 26-residue amino terminal peptide constituting the transmembrane and intracytosolic domains; from tissue
T2 sequence (Q12884 24-760 limits assumed): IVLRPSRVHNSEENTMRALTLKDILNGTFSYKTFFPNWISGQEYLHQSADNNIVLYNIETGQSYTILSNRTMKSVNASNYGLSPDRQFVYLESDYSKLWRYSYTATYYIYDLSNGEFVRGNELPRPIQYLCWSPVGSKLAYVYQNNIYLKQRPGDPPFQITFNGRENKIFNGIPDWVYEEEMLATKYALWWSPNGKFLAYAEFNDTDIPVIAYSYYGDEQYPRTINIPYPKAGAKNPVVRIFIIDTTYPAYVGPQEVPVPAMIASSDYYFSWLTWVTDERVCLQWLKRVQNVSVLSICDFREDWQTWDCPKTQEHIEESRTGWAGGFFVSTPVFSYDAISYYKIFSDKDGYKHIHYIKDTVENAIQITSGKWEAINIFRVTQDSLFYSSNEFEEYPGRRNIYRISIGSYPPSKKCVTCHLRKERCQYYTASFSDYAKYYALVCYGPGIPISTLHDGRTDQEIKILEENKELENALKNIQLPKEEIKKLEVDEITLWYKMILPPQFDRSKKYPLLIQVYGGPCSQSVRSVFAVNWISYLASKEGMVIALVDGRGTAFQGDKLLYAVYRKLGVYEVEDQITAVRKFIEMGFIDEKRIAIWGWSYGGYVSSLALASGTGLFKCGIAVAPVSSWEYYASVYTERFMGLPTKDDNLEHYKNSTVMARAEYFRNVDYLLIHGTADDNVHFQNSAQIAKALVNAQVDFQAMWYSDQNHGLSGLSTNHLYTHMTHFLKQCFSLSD
Description: (§1) For accurate assessment of kinetic parameters, saturating concentrations of substrate were used. For standard curves, dilutions of AFC (7-amino-4-trifluoromethylcoumarin) were prepared in the same assay buffer and corresponding fluorescence was measured.

POP [5] = target: T3, POP (Homo sapiens, UniProt P48147); experiment: POP inhibition constants (Ki) with Tic-Pro-AFC substrate; assay type: biochemical; settings: for Ki: substrate Tic-Pro-AFC; for Selectivity Ki (POP) / Ki (APCE/FAP): ratio of Ki values
T3 sequence (P48147 1-710): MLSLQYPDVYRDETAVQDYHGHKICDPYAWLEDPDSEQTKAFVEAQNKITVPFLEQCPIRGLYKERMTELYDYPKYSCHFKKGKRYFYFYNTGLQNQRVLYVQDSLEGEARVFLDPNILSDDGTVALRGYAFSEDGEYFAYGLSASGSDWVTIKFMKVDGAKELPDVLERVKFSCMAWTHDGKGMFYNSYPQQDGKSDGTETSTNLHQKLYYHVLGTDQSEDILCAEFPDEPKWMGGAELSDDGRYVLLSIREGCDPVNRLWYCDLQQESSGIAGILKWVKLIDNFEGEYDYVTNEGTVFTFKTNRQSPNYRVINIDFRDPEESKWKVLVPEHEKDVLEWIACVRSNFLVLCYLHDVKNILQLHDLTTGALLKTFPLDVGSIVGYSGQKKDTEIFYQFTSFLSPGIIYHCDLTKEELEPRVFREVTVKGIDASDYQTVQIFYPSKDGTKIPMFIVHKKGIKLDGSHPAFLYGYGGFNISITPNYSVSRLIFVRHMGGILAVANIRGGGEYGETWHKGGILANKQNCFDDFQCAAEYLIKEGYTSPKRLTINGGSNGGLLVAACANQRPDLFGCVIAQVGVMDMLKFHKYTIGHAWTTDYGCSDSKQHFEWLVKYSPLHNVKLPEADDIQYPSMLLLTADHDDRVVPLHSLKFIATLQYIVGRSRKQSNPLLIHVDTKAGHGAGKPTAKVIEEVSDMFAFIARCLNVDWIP
Description: as §1

HMVEC-d = experiment: Tube formation assay of HMVEC-d on Matrigel; assay type: cell-based, human; settings: 50 μM inhibitor
Description: For tube formation assays, Matrigel™ (BD Biosciences, San Jose, Calif.) 80 μl was added to black-sided, clear bottom 96-well plates as above and allowed to gel at 37° C. for 30 minutes. Then 15,000 HMVEC-d in EC media without serum were added and allowed to settle for 1 hour. […] The reader was maintained at 37° C. and fluorescence was measured with time for 18 hours.

DPPIV [6] = target: T1, DPPIV; experiment: DPPIV inhibition constants (Ki) with Tic-Pro-AFC substrate; assay type: biochemical; settings: for Selectivity Ki (DPPIV) / Ki (APCE-FAP): ratio of Ki values; for Ki: substrate Tic-Pro-AFC
Description: as §1

POP [7] = target: T3, POP; experiment: Cleavage kinetics of fluorescent substrates by POP; assay type: biochemical; settings: for Km / kcat: substrate cleaved by POP
Description: (§2) APCE (^˜4 μg), DPPIV (^˜2 μg) or POP (^˜2 μg) was incubated in 25 mM sodium phosphate buffer, pH 7.5, containing 1.0 mM EDTA and 2% methanol in a total volume of 200 μl for 20 min at 22° C. Using Tic-Pro-AFC (10-300 μM for APCE, 5-200 μM for DPPIV, and 40-800 μM for POP), fluorescence was monitored with time at excitation/emission wavelengths of 400/508 nm, using a black-sided 96-well plate in a BIO-TEK FL600 fluorescence plate reader. For accurate assessment of kinetic parameters, saturating concentrations of substrate were used. For standard curves, dilutions of AFC (7-amino-4-trifluoromethylcoumarin) were prepared in the same assay buffer and corresponding fluorescence was measured.
(§3) Characterization of Tic-Pro-AFC as substrate: A new substrate, Tic-Pro-AFC, was used for assessing APCE/FAP, DPPIV and POP, each belonging to the same clade of prolyl-specific serine proteinases and each with activity towards unique substrates. […] Based on Ki, Km and kcat values in Tables 6 and 7, Tic-Pro-AFC was readily cleaved by each enzyme, with kcat/Km for APCE/FAP being slightly higher than POP and slightly lower than DPPIV. […] Thus, Tic-Pro-AFC was chosen as the substrate for comparing the potency and selectivity of the inhibitors towards APCE/FAP, DPPIV, or POP.

DPPIV [8] = target: T1, DPPIV; experiment: Cleavage kinetics of fluorescent substrates by DPPIV; assay type: biochemical; settings: for cleavage of substrate by DPPIV: result in words
Description: as §2, §3

APCE/FAP [9] = target: T2, APCE/FAP; experiment: Cleavage kinetics of fluorescent substrates by APCE/FAP; assay type: biochemical
Description: as §2, §3

Molecule: N[C@@H](CCC(=O)O)C(=O)N1CCC[C@H]1B(O)O [Glu-boroPro, glutamyl-proline boronic acid]
inhibition of DPPIV (DPPIV [1]): also inhibits
plasma half-life [2]: exceptionally short

solubility in aqueous buffers (Aqueous solubility): soluble in aqueous buffers
Ki (POP [5]): < 100 nM
inhibition of DPPIV (DPPIV [6]; result in words): nor was it inhibited
Molecule: CC(=O)N[C@@H](CCCCN)C(=O)N[C@@H](CC(C)C)C(=O)N[C@@H](CCCNC(=N)N)C(=O)N1CCC[C@H]1B(O)O [Compound J94, acetyl-Lys-Leu-Arg-(L)boroPro]
diminished cancer growth [3]: ~75%
inhibition of FAP (APCE/FAP [4]; result in words): none towards FAP; also recorded: no effect on FAP
formation of capillary-like tubes (HMVEC-d): inhibited formation of capillary-like tubes; also recorded: abrogated the genesis of capillary-like tubes

Ki (APCE/FAP [4]): 7.7 nM
Molecule: Ac-Arg-peg-D-Ala-DL(25:75%)-boroPro

cleavage of substrate by POP (POP [7]; result in words): not cleaved by POP
Molecule: Cc1cc(=O)oc2cc(NC(=O)[C@@H]3CCCN3C(=O)CN)ccc12 [GP-AMC] (H-Gly-Pro-{AMC})

Molecule: CC(=O)N[C@@H](CCCCN)C(=O)N[C@@H](CC(C)C)C(=O)N[C@@H](CCCNC(=N)N)C(=O)N1CCC[C@H]1C(=O)Nc1ccc2c(C)cc(=O)oc2c1 [Compound L96, acetyl-Lys-Leu-Arg-Pro-AMC] (Ac-KLRP-{AMC})
cleavage of substrate by DPPIV (DPPIV [8]): Neither DPPIV nor APCE/FAP cleaved
cleavage of substrate by APCE/FAP (APCE/FAP [9]; result in words): Neither DPPIV nor APCE/FAP cleaved
Km (POP [7]): 30 ± 3 µM
kcat (POP [7]): 2.4 ± 0.1 s⁻¹

cleavage of substrate by DPPIV (DPPIV [8]): not cleaved by DPPIV
Molecule: Cc1cc(=O)oc2cc(NC(=O)[C@@H]3CCCN3C(=O)CNC(=O)OCc3ccccc3)ccc12 [Z-GP-AMC, benzyloxycarbonyl (Z)-GP-AMC] (Cbz-Gly-Pro-{AMC})

Ki (APCE/FAP [4]): 1380 nM
Selectivity Ki (POP) / Ki (APCE/FAP) (POP [5]): 0.02
Ki (POP [5]): 23.9 nM
Selectivity Ki (DPPIV) / Ki (APCE-FAP) (DPPIV [6]): 5.2
Ki (DPPIV [6]): 7130 nM
Molecule: CC(=O)N[C@@H](CCCNC(=N)N)C(=O)NCCOCCOCC(=O)N[C@H](CC(=O)O)C(=O)N1CCC[C@H]1B(O)O [Ac-Arg-peg-D-Asp-L-boroPro]

Ki (APCE/FAP [4]): 9.5 nM
Selectivity Ki (DPPIV) / Ki (APCE-FAP) (DPPIV [6]): 1176
Ki (DPPIV [6]): 11200 nM
Molecule: Ac-Arg-peg-D-Ala-DL(50:50%)-boroPro

Ki (APCE/FAP [4]): 189 nM
Ki (DPPIV [6]): 20500 nM
Molecule: CC(=O)N[C@@H](CCCNC(=N)N)C(=O)NCCOCCOCC(=O)N[C@H](C)C(=O)N1CCC[C@@H]1B(O)O (single isomer, unassigned) [Ac-Arg-peg-D-Ala-D-boroPro]

Km (DPPIV [8]; substrate cleaved by DPPIV): 33 ± 2 µM
kcat (DPPIV [8]; substrate cleaved by DPPIV): 1.49 ± 0.12 s⁻¹
Km (APCE/FAP [9]; substrate cleaved by APCE/FAP): 53 ± 5 µM
kcat (APCE/FAP [9]; substrate cleaved by APCE/FAP): 1.19 ± 0.11 s⁻¹
Km (POP [7]): 161 ± 12 µM
kcat (POP [7]): 0.76 ± 0.01 s⁻¹
Molecule: O=C(Nc1ccc2c(C(F)(F)F)cc(=O)oc2c1)[C@@H]1CCCN1C(=O)[C@@H]1Cc2ccccc2CN1 [Tic-Pro-AFC] (H-[Tic]-Pro-{AFC})

cleavage of substrate by DPPIV (DPPIV [8]): neither cleaved
solubility in aqueous buffers (Aqueous solubility): soluble in aqueous buffers
Molecule: CC(=O)N[C@@H](CCCNC(=N)N)C(=O)NCCOCCOCC(=O)NCC(=O)N1CCC[C@H]1C(=O)Nc1ccc2c(C)cc(=O)oc2c1 [Compound C95, acetyl-Arg-AEEA-Gly-Pro-AMC] (Ac-R[AEEA]GP-{AMC})
relative rate of cleavage by FAP and POP (APCE/FAP [9]; FAP and POP at equimolar concentrations): equivalent rates; also recorded: cleaved at equal rates by FAP or POP

Ki (APCE/FAP [4]): 2.7 nM
Selectivity Ki (POP) / Ki (APCE/FAP) (POP [5]): 1.1
Ki (POP [5]): 2.9 nM
Ki (DPPIV [6]): 861 nM
Molecule: CC(=O)N[C@@H](CCCNC(=N)N)C(=O)NCCOCCOCC(=O)N[C@@H](CO)C(=O)NCC(=O)N1CCC[C@H]1B(O)O [Ac-Arg-peg-Ser-Gly-L-boroPro]

Ki (APCE/FAP [4]): 1.8 nM
Selectivity Ki (POP) / Ki (APCE/FAP) (POP [5]): 1.2
Ki (POP [5]): 2.1 nM
Ki (DPPIV [6]): 440 nM
Molecule: CC(=O)N[C@@H](CCCNC(=N)N)C(=O)NCCOCCOCC(=O)NCC(=O)N1CCC[C@H]1B(O)O [Ac-Arg-peg-Gly-L-boroPro]

Ki (APCE/FAP [4]): 18.3 nM
Molecule: Ac-Arg-peg-D-Ala-DL(75:25%)-boroPro

Molecule: CC(C)[C@H](N)C(=O)N1CCC[C@H]1B(O)O [Val-boroPro]
inhibition of DPPIV (DPPIV [1]): also inhibit

Selectivity Ki (POP) / Ki (APCE/FAP) (POP [5]): 0.1
Ki (POP [5]): 1.6 nM
Molecule: CC(=O)N[C@@H](CCCNC(=N)N)C(=O)NCC(=O)NCC(=O)N1CCC[C@H]1B(O)O [Ac-Arg-Gly-Gly-L-boroPro]

Ki (APCE/FAP [4]): 3.1 nM
Selectivity Ki (DPPIV) / Ki (APCE-FAP) (DPPIV [6]): 371
Ki (DPPIV [6]): 1150 nM
Molecule: Ac-Arg-peg-Gly-DL-boroPro

Ki (APCE/FAP [4]): 22.9 nM
Selectivity Ki (DPPIV) / Ki (APCE-FAP) (DPPIV [6]): 14.9
Ki (DPPIV [6]): 341 nM
Molecule: Ac-Arg-Gly-Gly-DL-boroPro
